Reference: the supplement of paper PMC10307832

What was measured:
Assay in all cases: relative viability (nuclei count vs DMSO), 5 days (fraction); higher = more cells survive
[1] = compound: Nc1ccn([C@@H]2O[C@H](CO)[C@@H](O)C2(F)F)c(=O)n1 [Gemcitabine] + COc1cc2c(Oc3ccc(NC(=O)C4(C(=O)Nc5ccc(F)cc5)CC4)cc3F)ccnc2cc1OCCCN1CCOCC1 [Foretinib] (partner 0.25 µM)
In short: (§1)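 Lung cancer cell lines were pin-tool dosed in 1536-well plates on the day after seeding, with either a lone drug or a fixed anchor-drug dose plus five library-drug doses (not always all listed) in √10 steps. Nuclei were counted on 4× images after 5 days. Relative viability is the ratio of treated-well to vehicle-well nuclei counts, with each value a median of duplicate plates.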

[2] = compound: Nc1ccn([C@@H]2O[C@H](CO)[C@@H](O)C2(F)F)c(=O)n1 [Gemcitabine] + Cc1cc(Nc2cc(N3CCN(C)CC3)nc(Sc3ccc(NC(=O)C4CC4)cc3)n2)n[nH]1 [Tozasertib] (partner 0.1 µM)
In short: as §1

[3] = compound: Nc1ccn([C@@H]2O[C@H](CO)[C@@H](O)C2(F)F)c(=O)n1 [Gemcitabine] + CCNC(=O)c1noc(-c2cc(C(C)C)c(O)cc2O)c1-c1ccc(CN2CCOCC2)cc1 [Luminespib] (partner 0.01 µM)
In short: as §1

[4] = compound: Nc1ccn([C@@H]2O[C@H](CO)[C@@H](O)C2(F)F)c(=O)n1 [Gemcitabine] + NC(=O)Nc1cc(-c2cccc(F)c2)sc1C(=O)N[C@H]1CCCNC1 [AZD7762] (partner 0.2 µM)
In short: as §1

Cell Line | relative viability ([1]; first compound 0.001 µM) | relative viability ([1]; first compound 0.003162 µM) | relative viability ([1]; first compound 0.01 µM) | relative viability ([1]; first compound 0.03162 µM) | relative viability ([1]; first compound 0.1 µM) | relative viability ([2]; first compound 0.001 µM) | relative viability ([2]; first compound 0.003162 µM) | relative viability ([2]; first compound 0.01 µM) | relative viability ([2]; first compound 0.03162 µM) | relative viability ([2]; first compound 0.1 µM) | relative viability ([3]; first compound 0.001 µM) | relative viability ([3]; first compound 0.003162 µM) | relative viability ([3]; first compound 0.01 µM) | relative viability ([3]; first compound 0.03162 µM) | relative viability ([3]; first compound 0.1 µM) | relative viability ([4]; first compound 0.001 µM) | relative viability ([4]; first compound 0.003162 µM) | relative viability ([4]; first compound 0.01 µM) | relative viability ([4]; first compound 0.03162 µM) | relative viability ([4]; first compound 0.1 µM)
201T | 1.06 | 0.994 | 0.914 | 0.217 | 0.177 | 0.981 | 0.98 | 0.896 | 0.425 | 0.298 | 1.04 | 1.03 | 1.04 | 0.681 | 0.278 | 0.59 | 0.584 | 0.237 | 0.225 | 0.233
A-427 | 1.09 | 0.948 | 0.598 | 0.181 | 0.155 | 0.189 | 0.19 | 0.135 | 0.13 | 0.121 | 1 | 0.899 | 0.443 | 0.195 | 0.171 | 0.472 | 0.302 | 0.174 | 0.188 | 0.146
ABC-1 | 0.886 | – | 1.06 | 0.312 | 0.17 | 0.185 | – | 0.159 | 0.188 | 0.187 | 0.618 | 1.05 | 0.371 | 0.25 | 0.151 | 0.748 | 0.757 | 0.964 | 0.295 | 0.304
BEN | 0.77 | 0.575 | 0.303 | 0.112 | 0.119 | 0.56 | 0.559 | 0.419 | 0.24 | 0.175 | 0.528 | 0.317 | 0.14 | 0.12 | 0.107 | 0.441 | 0.252 | 0.184 | 0.184 | 0.253
CAL-12T | 1.11 | 1.03 | 0.982 | 0.707 | 0.182 | 0.292 | 0.35 | 0.29 | 0.22 | 0.129 | 0.87 | 0.238 | 0.245 | 0.236 | 0.173 | 0.624 | 0.548 | 0.227 | 0.206 | 0.23
ChaGo-K-1 | 0.901 | 0.815 | 0.428 | 0.213 | 0.191 | 0.217 | 0.216 | 0.184 | 0.181 | 0.155 | 0.603 | 0.474 | 0.259 | 0.183 | 0.186 | 0.819 | 0.47 | 0.186 | 0.141 | 0.153
EKVX | 0.788 | 0.457 | 0.173 | 0.246 | 0.113 | 0.456 | 0.376 | 0.257 | 0.12 | 0.106 | 1.06 | 0.727 | 0.456 | 0.182 | 0.115 | 0.49 | 0.466 | 0.142 | 0.147 | 0.139
EMC-BAC-2 | 1.03 | 1.03 | 0.885 | 0.201 | 0.201 | 0.269 | 0.32 | 0.26 | 0.176 | 0.155 | 1.29 | 1.17 | 1.04 | 0.222 | 0.194 | 1.18 | 0.723 | 0.224 | 0.301 | 0.232
EPLC-272H | 0.636 | 0.815 | 0.416 | 0.075 | 0.0466 | 0.291 | 0.295 | 0.249 | 0.0772 | 0.0692 | 0.145 | 0.323 | 0.337 | 0.16 | 0.135 | 0.19 | 0.141 | 0.0918 | 0.101 | 0.0686
H3255 | 1.04 | 0.666 | 0.782 | 0.273 | 0.229 | 0.604 | 0.497 | 0.407 | 0.258 | 0.209 | 0.899 | 0.752 | 0.707 | 0.271 | 0.248 | 1 | 0.604 | 0.37 | 0.203 | 0.248
HARA | 0.965 | 0.894 | 0.853 | 0.119 | 0.0735 | 0.12 | 0.103 | 0.095 | 0.0811 | 0.042 | 0.683 | 0.847 | 0.719 | 0.0504 | 0.0409 | 0.328 | 0.241 | 0.131 | 0.132 | 0.117
HCC-15 | 1.12 | 1.07 | 1.01 | 0.152 | 0.0815 | 0.51 | 0.436 | 0.39 | 0.247 | 0.0632 | 0.305 | 0.234 | 0.32 | 0.15 | 0.0821 | 1.03 | 1.21 | 1.18 | 0.129 | 0.113
HCC-827 | 1 | 0.865 | 0.565 | 0.332 | 0.177 | 0.402 | 0.392 | 0.303 | 0.191 | 0.169 | 0.777 | 0.365 | 0.386 | 0.259 | 0.16 | 0.128 | 0.12 | 0.107 | 0.11 | 0.133
HOP-62 | 1.01 | 0.965 | 0.306 | 0.103 | 0.0927 | 0.392 | 0.285 | 0.0943 | 0.0841 | 0.0623 | 0.968 | 0.852 | 0.376 | 0.107 | 0.106 | 0.287 | 0.08 | 0.0514 | 0.0757 | 0.0617
NCI-H522 | – | – | – | – | – | 0.555 | 0.396 | 0.379 | 0.354 | 0.312 | 1.14 | 1.08 | 0.727 | 0.392 | 0.368 | 0.709 | 0.384 | 0.286 | 0.323 | 0.204
